From patent US9416141B2 (University of Washington through its Center for …, priority 2012, dated 2016)
Structures can show the parent of a compound that is named as a salt.

System: hair cells
Assay: Hair cell toxicity assay in zebrafish (neomycin-induced hair cell death, DASPEI staining of neuromasts)
Format: in vivo
Details: Danio rerio; for Emax at 25 µM: maximum observed @ 25 μM test compound; for Emax at 25 µM / Emax at 8.3 µM / Emax at 2.8 µM: 200 micromolar neomycin, read-out: Max HC Protection (HCmax, % hair cell survival); for EC50: zebrafish larvae 5-7 dpf, 1 h pre-treatment, then 200 micromolar neomycin + test compound 30 min, read-out: HC50 (concentration that would produce 50% hair cell survival); for Emax at 8.3 µM: maximum observed @ 8.3 μM test compound; for Emax at 2.8 µM: maximum observed @ 2.8 μM test compound
Method in brief: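 Zebrafish larvae 5-7 dpf pre-treated 1 h with compound (0.010-25 μM), then 30 min with 200 μM neomycin plus compound. DASPEI stained 10 neuromasts per fish, scored 0-2 (total 0-20), normalised to vehicle controls as % hair cell survival. HC50 linearly interpolated if survival reached ≥50%; HCmax is maximum survival.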

NC(=O)c1c(NC(=O)Nc2ccc3ccccc3c2)sc2c1CCN(CCCCO)C2 [Example 37, 6-(4-Hydroxybutyl)-2-[3-(naphthalen-2-yl)ureido]-4,5,6,7-tetrahydrothieno[2,3-c]pyridine-3-carboxamide hydrochloride]
Emax at 25 µM: 105%
EC50: 1000 to 10000 nM

NC(=O)CCN1CCc2c(sc(NC(=O)Nc3ccc(Cl)cc3)c2C(N)=O)C1 [Example 50, 6-(3-amino-3-oxopropyl)-2-[3-(4-chlorophenyl)ureido]-4,5,6,7-tetrahydrothieno[2,3-c]pyridine-3-carboxamide hydrochloride]
Emax at 25 µM: 82%
EC50: 1000 to 10000 nM

CC(C)(C)OC(=O)CCCN1CCc2c(sc(NC(=O)Nc3ccc(Cl)cc3)c2C(N)=O)C1 [Example 14, tert-Butyl 4-{3-carbamoyl-2-[3-(4-chlorophenyl)ureido]-4,5-dihydrothieno[2,3-c]pyridin-6(7H)-yl}butanoate]
Emax at 8.3 µM: 83%
EC50: < 1000 nM

CC(C)(C)OC(=O)C1CC(N2CCc3c(sc(NC(=O)Nc4ccc(Cl)cc4)c3C(N)=O)C2)C1 (centres unmarked) [Example 22, tert-Butyl 3-{3-carbamoyl-2-[3-(4-chlorophenyl)ureido]-4,5-dihydrothieno[2,3-c]pyridin-6(7H)-yl}cyclobutanecarboxylate]
Emax at 2.8 µM: 22%

CC(C)(C)CN1CCc2c(sc(NC(=O)Nc3ccc4ccccc4c3)c2C(N)=O)C1 [Example 36, 2-[3-(Naphthalen-2-yl)ureido]-6-neopentyl-4,5,6,7-tetrahydrothieno[2,3-c]pyridine-3-carboxamide hydrochloride]
Emax at 8.3 µM: 13%

CC(C(=O)O)N1CCc2c(sc(NC(=O)Nc3ccc(Cl)cc3)c2C(N)=O)C1 (racemic) [Example 62, (+/−)-2-{3-Carbamoyl-2-[3-(4-chlorophenyl)ureido]-4,5-dihydrothieno[2,3-c]pyridin-6(7H)-yl}propanoic acid hydrochloride]
Emax at 25 µM: 29%

CCN1CCc2c(sc(NC(=O)Nc3ccc(C)c(Cl)c3)c2C(N)=O)C1 [Example 83, 2-[3-(3-Chloro-4-methylphenyl)ureido]-6-ethyl-4,5,6,7-tetrahydrothieno[2,3-c]pyridine-3-carboxamide hydrochloride]
Emax at 25 µM: 63%
EC50: 1000 to 10000 nM

CC[N+]1(C)CCc2c(sc(NC(N)=O)c2C(N)=O)C1 (centres unmarked) [Example 184, 3-Carbamoyl-6-ethyl-6-methyl-2-ureido-4,5,6,7-tetrahydrothieno[2,3-c]pyridin-6-ium iodide]
Emax at 25 µM: 30%

CCN1CCc2c(sc(NC(=O)NC3CCCCC3)c2C(N)=O)C1 [Example 68, 2-(3-Cyclohexylureido)-6-ethyl-4,5,6,7-tetrahydrothieno[2,3-c]pyridine-3-carboxamide hydrochloride]
Emax at 25 µM: 5%

CC(C)(C)CN1CCc2c(sc(NC(=O)Nc3ccc(Cl)cc3)c2C(N)=O)C1 [Example 27, 2-[3-(4-Chlorophenyl)ureido]-6-neopentyl-4,5,6,7-tetrahydrothieno[2,3-c]pyridine-3-carboxamide hydrochloride]
Emax at 25 µM: 79%
EC50: 1000 to 10000 nM

COC(=O)CCCN1CCc2c(sc(NC(=O)Nc3ccc(Cl)cc3)c2C(N)=O)C1 [Example 20, Methyl 4-{3-carbamoyl-2-[3-(4-chlorophenyl)ureido]-4,5-dihydrothieno[2,3-c]pyridin-6(7H)-yl}butanoate hydrochloride]
Emax at 25 µM: 65%
EC50: 1000 to 10000 nM

CCN1CCc2c(sc(NC(=O)N(C)c3ccc(Cl)cc3)c2C(N)=O)C1 [Example 106, 2-[3-(4-chlorophenyl)-3-methylureido]-6-ethyl-4,5,6,7-tetrahydrothieno[2,3-c]pyridine-3-carboxamide hydrochloride]
Emax at 25 µM: 23%

CC[N+]1(C)CCCc2c(sc(NC(=O)Nc3ccc(Cl)cc3)c2C(N)=O)C1 (centres unmarked) [Example 173, 3-Carbamoyl-2-[3-(4-chlorophenyl)ureido]-7-ethyl-7-methyl-5,6,7,8-tetrahydro-4H-thieno[2,3-c]azepin-7-ium iodide]
Emax at 25 µM: 102%
EC50: 1000 to 10000 nM

CCOC(=O)CCC[N+]1(C)CCc2c(sc(NC(=O)Nc3ccc(Cl)cc3)c2C(N)=O)C1 (centres unmarked) [Example 161, 3-Carbamoyl-2-[3-(4-chlorophenyl)ureido]-6-(4-ethoxy-4-oxobutyl)-6-methyl-4,5,6,7-tetrahydrothieno[2,3-c]pyridin-6-ium iodide]
Emax at 2.8 µM: 87%
EC50: < 1000 nM

NC(=O)c1c(NC(=O)Nc2ccc(Cl)cc2)sc2c1CC[N+]1(CCCC1)C2 [Example 138, 3′-Carbamoyl-2′-[3-(4-chlorophenyl)ureido]-5′,7′-dihydro-4′H-spiro[pyrrolidine-1,6′-thieno[2,3-c]pyridin]-1-ium bromide]
Emax at 25 µM: 94%
EC50: < 1000 nM

CCN1CCc2c(sc(NC(=O)Nc3ccc(Cl)cc3)c2C(=O)NCCN2CCOCC2)C1 [Example 100, 2-[3-(4-Chlorophenyl)ureido]-6-ethyl-N-(2-morpholinoethyl)-4,5,6,7-tetrahydrothieno[2,3-c]pyridine-3-carboxamide dihydrochloride]
Emax at 25 µM: 59%
EC50: 1000 to 10000 nM

CCN1CCc2c(sc(NC(=O)Nc3ccc(C(=O)OC)cc3)c2C(N)=O)C1 [Example 31, Methyl 4-[3-(3-carbamoyl-6-ethyl-4,5,6,7-tetrahydrothieno[2,3-c]pyridin-2-yl)ureido]benzoate trifluoroacetate]
Emax at 25 µM: 22%

NC(=O)c1c(NC(=O)Nc2ccc(Cl)cc2)sc2c1CCN(CCO)C2 [Example 60, 2-[3-(4-Chlorophenyl)ureido]-6-(2-hydroxyethyl)-4,5,6,7-tetrahydrothieno[2,3-c]pyridine-3-carboxamide hydrochloride]
Emax at 25 µM: 71%
EC50: 1000 to 10000 nM
